Source: patent publication US6355799B1, “Substituted benzene compounds, process for their preparation, and herbicidal and defoliant compositions containing them” (ISK Americas Incorporated, priority 1997, dated 2002)

Columns and labels:
Format in all cases: in vivo
Conditions in all cases: rated 14 days after application, 0 = no damage, 100 = complete death
[1] = system: redroot pigweed (Amaranthus retroflexus, AMARE); assay: Pre-emerge test, greenhouse herbicide activity screening
In short: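 Plants grown in 10 cm pots of sandy loam mix received acetone-dissolved compounds through a moving flat-fan nozzle. Doses ranged from 15 to 1000 g ai/ha. Pre-emerge pots were seeded one day earlier, post-emerge pots 8–21 days earlier. Fourteen days on, each pot was graded 0–100 for damage.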

[2] = system: barnyardgrass (Echinochloa crus-galli, ECHCG); assay: as above
In short: (§1)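 Compounds in acetone were track-sprayed at 15-1000 g ai/ha (187 l/ha) on sandy loam pots: pre-emerge one day after seeding, post-emerge at 2-3 leaf stage with 0.25% v/v non-ionic surfactant. Phytotoxicity was rated 14 days later on a 0 (no damage) to 100 (complete death) scale.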

[3] = system: common ragweed (Ambrosia artemisizfolia L., AMBEL); assay: as above
In short: as §1

[4] = system: green foxtail (Setaria viridis, SETVI); assay: as above
In short: as §1

[5] = system: ivyleaf morningglory (Ipomoea hederacea, IPOHE); assay: as above
In short: as §1

[6] = system: johnsongrass (Sorghum halepense, SORHA); assay: as above
In short: as §1

[7] = system: lambsquarters (Chenopodium album, CHEAL); assay: as above
In short: as §1

[8] = system: large crabgrass (Digitaria sanguinalis, DIGSA); assay: as above
In short: as §1

[9] = system: sicklepod (Cassia obtusifolia, CASOB); assay: as above
In short: as §1

[10] = system: velvetleaf (Abutilon theophrasti, ABUTH); assay: as above
In short: as §1

[11] = system: field corn (Zea mays L., var. Dekalb 535, CORN); assay: Pre-emerge test, crop safety
In short: (§2)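 Fourteen days after spraying, crop and weed injury was graded visually from 0, no effect, to 100, every plant dead. Test substances were dissolved in acetone and applied at 15–1000 g ai/ha with a flat-fan nozzle. Application was either pre-emergence, one day after sowing, or post-emergence at the 2–3 leaf stage.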

[12] = system: upland rice (Oryza sp., var. Tebonnet, RICE); assay: Pre-emerge test, crop safety
In short: as §2

SMILES: CCOc1ccc(C(=O)Nc2c(OC)c(Cl)cc(F)c2-n2c(=O)cc(C(F)(F)F)n(C)c2=O)cc1 [2-64]
- Pre-emerge Herbicidal Activity, phytotoxicity rating (0-100), AMARE ([1]; 63 g ai/ha): 90
- Pre-emerge Herbicidal Activity, phytotoxicity rating (0-100), AMARE ([1]; 250 g ai/ha): 100
- Pre-emerge Herbicidal Activity, phytotoxicity rating (0-100), ECHCG ([2]; 63 g ai/ha): 0
- Pre-emerge Herbicidal Activity, phytotoxicity rating (0-100), ECHCG ([2]; 250 g ai/ha): 60
- Pre-emerge Herbicidal Activity, phytotoxicity rating (0-100), AMBEL ([3]; 63 g ai/ha): 0
- Pre-emerge Herbicidal Activity, phytotoxicity rating (0-100), AMBEL ([3]; 250 g ai/ha): 60
- Pre-emerge Herbicidal Activity, phytotoxicity rating (0-100), SETVI ([4]; 63 g ai/ha): 100
- Pre-emerge Herbicidal Activity, phytotoxicity rating (0-100), SETVI ([4]; 250 g ai/ha): 100
- Pre-emerge Herbicidal Activity, phytotoxicity rating (0-100), IPOHE ([5]; 63 g ai/ha): 0
- Pre-emerge Herbicidal Activity, phytotoxicity rating (0-100), IPOHE ([5]; 250 g ai/ha): 40
- Pre-emerge Herbicidal Activity, phytotoxicity rating (0-100), SORHA ([6]; 63 g ai/ha): 10
- Pre-emerge Herbicidal Activity, phytotoxicity rating (0-100), SORHA ([6]; 250 g ai/ha): 50
- Pre-emerge Herbicidal Activity, phytotoxicity rating (0-100), CHEAL ([7]; 63 g ai/ha): 90
- Pre-emerge Herbicidal Activity, phytotoxicity rating (0-100), CHEAL ([7]; 250 g ai/ha): 100
- Pre-emerge Herbicidal Activity, phytotoxicity rating (0-100), DIGSA ([8]; 63 g ai/ha): 40
- Pre-emerge Herbicidal Activity, phytotoxicity rating (0-100), DIGSA ([8]; 250 g ai/ha): 70
- Pre-emerge Herbicidal Activity, phytotoxicity rating (0-100), CASOB ([9]; 63 g ai/ha): 0
- Pre-emerge Herbicidal Activity, phytotoxicity rating (0-100), CASOB ([9]; 250 g ai/ha): 100
- Pre-emerge Herbicidal Activity, phytotoxicity rating (0-100), ABUTH ([10]; 63 g ai/ha): 100
- Pre-emerge Herbicidal Activity, phytotoxicity rating (0-100), ABUTH ([10]; 250 g ai/ha): 100
- Pre-emerge phytotoxicity rating (0-100), crop damage, CORN ([11]; 63 g ai/ha): 0
- Pre-emerge phytotoxicity rating (0-100), crop damage, CORN ([11]; 250 g ai/ha): 35
- Pre-emerge phytotoxicity rating (0-100), crop damage, RICE ([12]; 63 g ai/ha): 10
- Pre-emerge phytotoxicity rating (0-100), crop damage, RICE ([12]; 250 g ai/ha): 60
